Source: PMC12435834, “The GLYT1 inhibitor bitopertin mitigates erythroid PPIX production and liver disease in erythroid protoporphyria” (The Journal of Clinical Investigation, 2025)
pEC50: −log10 of the molar value.

What was measured:
GLYT1 [1] = molecular target: T1, GLYT1 (Rattus norvegicus, UniProt P28572); assay: ex vivo 3H-glycine uptake by peripheral blood cells of orally dosed rats vs free plasma concentration
T1 construct: gene Slc6a9
T1 sequence (P28572 1-638): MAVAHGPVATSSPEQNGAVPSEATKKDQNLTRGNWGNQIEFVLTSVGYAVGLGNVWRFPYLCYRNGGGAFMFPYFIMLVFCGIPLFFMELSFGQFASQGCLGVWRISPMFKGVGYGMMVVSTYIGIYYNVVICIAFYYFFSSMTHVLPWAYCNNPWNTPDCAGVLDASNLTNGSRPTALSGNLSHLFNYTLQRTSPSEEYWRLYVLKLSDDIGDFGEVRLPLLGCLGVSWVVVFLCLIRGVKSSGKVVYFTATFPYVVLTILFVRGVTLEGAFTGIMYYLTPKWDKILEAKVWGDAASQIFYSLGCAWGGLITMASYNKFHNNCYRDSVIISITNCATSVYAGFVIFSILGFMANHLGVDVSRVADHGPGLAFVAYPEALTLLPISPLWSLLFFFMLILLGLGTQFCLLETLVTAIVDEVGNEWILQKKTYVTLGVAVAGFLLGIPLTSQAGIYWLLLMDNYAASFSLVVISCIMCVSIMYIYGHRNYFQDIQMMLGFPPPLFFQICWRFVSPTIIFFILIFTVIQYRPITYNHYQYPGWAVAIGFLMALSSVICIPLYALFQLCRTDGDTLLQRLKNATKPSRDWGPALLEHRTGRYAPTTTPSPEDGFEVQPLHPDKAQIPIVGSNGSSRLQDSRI

GLYT1 [2] = molecular target: T2, GLYT1 (Mus musculus, UniProt P28571); assay: ex vivo 3H-glycine uptake by peripheral blood cells of orally dosed mice vs free plasma concentration
T2 construct: gene Slc6a9
T2 sequence (P28571 1-692): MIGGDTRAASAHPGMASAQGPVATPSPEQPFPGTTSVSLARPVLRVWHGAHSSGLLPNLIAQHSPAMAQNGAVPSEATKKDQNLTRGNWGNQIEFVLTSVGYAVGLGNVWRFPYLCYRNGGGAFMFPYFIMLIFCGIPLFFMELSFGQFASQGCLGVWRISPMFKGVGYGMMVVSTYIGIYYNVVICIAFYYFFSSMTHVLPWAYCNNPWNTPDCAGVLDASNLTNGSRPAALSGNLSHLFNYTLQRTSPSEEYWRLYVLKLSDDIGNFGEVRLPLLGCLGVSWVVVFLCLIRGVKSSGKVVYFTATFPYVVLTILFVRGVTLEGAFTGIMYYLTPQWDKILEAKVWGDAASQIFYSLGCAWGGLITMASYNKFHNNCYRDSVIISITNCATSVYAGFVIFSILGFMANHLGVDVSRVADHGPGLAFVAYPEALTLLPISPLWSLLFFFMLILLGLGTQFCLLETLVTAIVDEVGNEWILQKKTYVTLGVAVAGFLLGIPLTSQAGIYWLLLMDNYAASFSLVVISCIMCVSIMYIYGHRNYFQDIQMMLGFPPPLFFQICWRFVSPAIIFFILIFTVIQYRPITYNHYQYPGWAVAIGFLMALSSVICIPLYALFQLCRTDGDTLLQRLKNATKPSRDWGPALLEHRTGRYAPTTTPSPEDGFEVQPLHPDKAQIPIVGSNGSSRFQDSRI

pEC50 (GLYT1 [1]): 8.70 | pEC50 (GLYT1 [2]): 8.92
SMILES: C[C@H](Oc1ccc(S(C)(=O)=O)cc1C(=O)N1CCN(c2ncc(C(F)(F)F)cc2F)CC1)C(F)(F)F [bitopertin, [4-(3-fluoro-5-trifluoromethylpyridin-2-yl)piperazin-1-yl][5-methanesulfonyl-2-((S)-2,2,2-trifluoro-1-methylethoxy)phenyl]methanone]
